Data published in ChEMBL document CHEMBL4613329, “Characterization of Inhibition Reveals Distinctive Properties for Human and Saccharomyces cerevisiae CRM1” (J Med Chem, 2020).
The source made the active and inactive calls. No cut-off for these calls is given here.

Legend:
[1] = test system: Exportin-1 (Homo sapiens), O14980 [C528S]; test: Inhibition of fluorescently labeled PKI phi(0)Leu NES binding to human CRM1 C528S mutant expressed in Escherichia coli BL21 (DE3) at 62 uM by fluorescence polarization competition binding assay
Sequence of Exportin-1 (Homo sapiens), O14980 [C528S] (O14980 whole entry C528S): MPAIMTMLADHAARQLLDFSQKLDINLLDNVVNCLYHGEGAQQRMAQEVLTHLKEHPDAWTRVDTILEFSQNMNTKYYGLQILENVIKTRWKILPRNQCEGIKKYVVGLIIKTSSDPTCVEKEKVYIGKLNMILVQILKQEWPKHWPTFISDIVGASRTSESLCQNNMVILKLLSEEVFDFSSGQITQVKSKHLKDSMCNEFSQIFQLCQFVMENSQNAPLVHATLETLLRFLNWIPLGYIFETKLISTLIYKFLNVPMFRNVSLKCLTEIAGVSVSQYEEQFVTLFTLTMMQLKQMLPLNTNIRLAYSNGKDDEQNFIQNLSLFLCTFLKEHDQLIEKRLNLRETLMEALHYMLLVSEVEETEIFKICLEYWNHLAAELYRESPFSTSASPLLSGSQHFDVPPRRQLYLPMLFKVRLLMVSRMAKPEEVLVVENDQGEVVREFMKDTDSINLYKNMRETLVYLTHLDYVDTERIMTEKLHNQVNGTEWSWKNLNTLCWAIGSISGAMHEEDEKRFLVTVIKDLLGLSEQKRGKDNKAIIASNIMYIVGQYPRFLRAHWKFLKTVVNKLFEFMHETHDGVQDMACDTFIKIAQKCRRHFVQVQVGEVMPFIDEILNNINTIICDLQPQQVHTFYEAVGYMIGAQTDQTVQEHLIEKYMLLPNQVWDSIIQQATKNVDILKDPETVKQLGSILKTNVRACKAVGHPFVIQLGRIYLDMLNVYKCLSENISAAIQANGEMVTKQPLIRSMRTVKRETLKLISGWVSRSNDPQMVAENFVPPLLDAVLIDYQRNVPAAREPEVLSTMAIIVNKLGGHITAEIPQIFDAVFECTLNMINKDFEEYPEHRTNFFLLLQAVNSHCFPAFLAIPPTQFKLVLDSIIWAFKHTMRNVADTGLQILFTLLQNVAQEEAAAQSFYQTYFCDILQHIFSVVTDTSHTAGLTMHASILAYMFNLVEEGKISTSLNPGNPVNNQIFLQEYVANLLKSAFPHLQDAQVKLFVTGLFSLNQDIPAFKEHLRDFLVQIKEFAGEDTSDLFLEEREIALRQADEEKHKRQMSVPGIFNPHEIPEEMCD

[2] = target: T1, Exportin-1 (Homo sapiens, UniProt O14980); test: Inhibition of fluorescently labeled PKI phi(0)Leu NES binding to human CRM1 expressed in Escherichia coli BL21 (DE3) by fluorescence polarization competition binding assay
T1 sequence (O14980 whole entry): as the sequence (O14980 whole entry C528S) above, with S528C counted along it

[3] = test system: Saccharomyces cerevisiae; test: Inhibition of fluorescently labeled PKI phi(0)Leu NES binding to Saccharomyces cerevisiae CRM1 Thr539Cys mutant expressed in Escherichia coli BL21 (DE3) at 0.2 to 200 uM by fluorescence polarization competition binding assay
[4] = target: Exportin-1 (Saccharomyces cerevisiae) (UniProt P30822); test: Inhibition of fluorescently labeled PKI phi(0)Leu NES binding to Saccharomyces cerevisiae CRM1 expressed in Escherichia coli BL21 (DE3) at 0.2 to 200 uM by fluorescence polarization competition binding assay
[5] = target: T1, Exportin-1; test: Inhibition of immobilized HsCRM1-HsRanGTP-HsSPN binding to C-terminal His6-tagged and MBP-fused full length human CRM1 expressed in Escherichia coli SG13009 at 100 nmol incubated for 20 mins by pull-down assay
[6] = target: Exportin-1 (Saccharomyces cerevisiae) (UniProt P30822); test: Inhibition of fluorescently labeled PKI phi(0)Leu NES binding to Saccharomyces cerevisiae CRM1 expressed in Escherichia coli BL21 (DE3) at 0.5 to 500 uM by fluorescence polarization competition binding assay
[7] = test system: Exportin-1 (Homo sapiens), O14980 [C528S]; test: Inhibition of fluorescently labeled PKI phi(0)Leu NES binding to human CRM1 C528S mutant expressed in Escherichia coli BL21 (DE3) at 6 uM by fluorescence polarization competition binding assay
[8] = test system: Saccharomyces cerevisiae; test: Inhibition of fluorescently labeled PKI phi(0)Leu NES binding to Saccharomyces cerevisiae CRM1 Thr539Cys mutant expressed in Escherichia coli BL21 (DE3) at 2 to 2000 nM by fluorescence polarization competition binding assay
[9] = test system: Exportin-1 (Homo sapiens), O14980 [C528S]; settings: 200 nM
Description: Inhibition of fluorescently labeled PKI phi(0)Leu NES binding to human CRM1 C528S mutant expressed in Escherichia coli BL21 (DE3) at 200 nM by fluorescence polarization competition binding assay

[10] = target: Exportin-1 (Saccharomyces cerevisiae) (UniProt P30822); settings: 2 to 2000 nM
Description: Inhibition of fluorescently labeled PKI phi(0)Leu NES binding to Saccharomyces cerevisiae CRM1 expressed in Escherichia coli BL21 (DE3) at 2 to 2000 nM by fluorescence polarization competition binding assay

Row | Compound | inhibition [1] | IC50 [2] [µM] | inhibition [2] | inhibition [3] | inhibition [4] | inhibition [5] | inhibition [6] | inhibition [7] | inhibition [8] | inhibition [9] | inhibition [10]
1 | NC(=O)c1c(NC(NC(=O)c2ccccc2F)(C(F)(F)F)C(F)(F)F)sc2c1CCCC2 | inactive | 59 | Dose-dependent effect | inactive | inactive | inactive |  |  |  |  | 
2 | CCOC(=O)c1n[nH]c2c1C(=O)N(c1ccc([N+](=O)[O-])cc1)C2=O | Active | 63 |  |  |  | Active | Active |  |  |  | 
3 | COc1cc(-c2nc(S(=O)(=O)c3ccc(Cl)cc3)c(N(C)C)o2)cc(OC)c1OC |  | 4.2 | Dose-dependent effect | inactive | inactive | Active |  | inactive |  |  | 
4 | COc1cc2cnsc2s1 | inactive | 40 | Dose-dependent effect |  |  | inactive |  |  |  |  | 
5 | CCC(=C/[C@H](C)C/C=C/C(C)=C/[C@@H](C)C(=O)[C@@H](C)[C@H](O)[C@@H](C)C/C(C)=C/C(=O)O)/C=C/[C@@H]1OC(=O)C=C[C@@H]1C [LEPTOMYCIN B] |  | 0.151 |  |  |  |  |  |  | Active | inactive | inactive
